From patent publication US11168095B2, “ASK1 inhibiting agents” (BIOGEN MA INC., priority 2017, dated 2021)

Columns and labels:
[1] = biological target: ASK1 T838 auto phosphorylation in HEK-293T cells (Homo sapiens (Human), UniProt Q99683); experiment: ASK1 (AUTO PHOS T838) assay, MSD format; assay type: cell-based; conditions: HEK 293T cells transfected with ASK1-V5 full length plasmid, compounds 1 hr at 37° C.; read-out: IC50
Protocol: The plates were incubated at 37° C. overnight. Media on plates was changed to OPTI-MEM, serum free media and cells were transfected with 9 μg of ASK1-V5 tagged full length plasmid using Lipofectamine 2000 (Invitrogen) and the plates were incubated at 37° C. overnight. Cells were trypsinized, counted on Nexcellometer and plated into 96 well tissue culture plates with 100,000 cells/well and 200 μL media. Cells were incubated for 4 hr at 37° C. then ASK1 compounds were added using a HP 300e. Compounds were tested at 20 μM with 3 fold, 10 point dilution points then incubated for 1 hr at 37° C. A lysis buffer (Cell Signaling) was prepared with protease and phosphatase inhibitor and maintained at 4° C. until use. Media from cells was discarded and 120 μL of cold lysis buffer was added to the cells, the plate was shaken 4° C. for 1 hr. Lysate was mixed using Apricot liquid handler; aspirating up and down 16 times at high speed using 50 μL volume. […] Plates were then incubated on a plate shaker overnight at 4° C. Plates were washed 3× with MSD wash buffer and 50 μL of rabbit anti-pASK1 T838 antibody was added to the wells and incubated for 2 hr at room temperature on a plate shaker. Plates were then washed and 50 μL of goat anti-rabbit sulfa-tag (1:500 dilution) was added to wells, and incubated for 1 hr at room temperature on a plate shaker. […] Plates were immediately read on a MSD Instrument Reader where chemoluminecense signal was measured. Data was analyzed using Graph Pad or Genedata, the data was normalized and plotted, % activity versus log of compound concentration. The IC50 values were obtained from a 4 parameter fit.

ASK1/MAP3K5 = ASK1/MAP3K5 (Homo sapiens (Human), UniProt Q99683); experiment: ASK1/MAP3K5 assay by Reaction Biology Corp.; assay type: biochemical; conditions: 20 μM myelin basic protein (MBP), 10 μM ATP
Protocol: ASK1/MAP3K5 was used as the protein kinase and 20 μM of myelin basic protein (MBP) and 10 μM ATP were used as the substrate.

Sequence of ASK1 T838 auto phosphorylation in HEK-293T cells (Q99683 whole entry): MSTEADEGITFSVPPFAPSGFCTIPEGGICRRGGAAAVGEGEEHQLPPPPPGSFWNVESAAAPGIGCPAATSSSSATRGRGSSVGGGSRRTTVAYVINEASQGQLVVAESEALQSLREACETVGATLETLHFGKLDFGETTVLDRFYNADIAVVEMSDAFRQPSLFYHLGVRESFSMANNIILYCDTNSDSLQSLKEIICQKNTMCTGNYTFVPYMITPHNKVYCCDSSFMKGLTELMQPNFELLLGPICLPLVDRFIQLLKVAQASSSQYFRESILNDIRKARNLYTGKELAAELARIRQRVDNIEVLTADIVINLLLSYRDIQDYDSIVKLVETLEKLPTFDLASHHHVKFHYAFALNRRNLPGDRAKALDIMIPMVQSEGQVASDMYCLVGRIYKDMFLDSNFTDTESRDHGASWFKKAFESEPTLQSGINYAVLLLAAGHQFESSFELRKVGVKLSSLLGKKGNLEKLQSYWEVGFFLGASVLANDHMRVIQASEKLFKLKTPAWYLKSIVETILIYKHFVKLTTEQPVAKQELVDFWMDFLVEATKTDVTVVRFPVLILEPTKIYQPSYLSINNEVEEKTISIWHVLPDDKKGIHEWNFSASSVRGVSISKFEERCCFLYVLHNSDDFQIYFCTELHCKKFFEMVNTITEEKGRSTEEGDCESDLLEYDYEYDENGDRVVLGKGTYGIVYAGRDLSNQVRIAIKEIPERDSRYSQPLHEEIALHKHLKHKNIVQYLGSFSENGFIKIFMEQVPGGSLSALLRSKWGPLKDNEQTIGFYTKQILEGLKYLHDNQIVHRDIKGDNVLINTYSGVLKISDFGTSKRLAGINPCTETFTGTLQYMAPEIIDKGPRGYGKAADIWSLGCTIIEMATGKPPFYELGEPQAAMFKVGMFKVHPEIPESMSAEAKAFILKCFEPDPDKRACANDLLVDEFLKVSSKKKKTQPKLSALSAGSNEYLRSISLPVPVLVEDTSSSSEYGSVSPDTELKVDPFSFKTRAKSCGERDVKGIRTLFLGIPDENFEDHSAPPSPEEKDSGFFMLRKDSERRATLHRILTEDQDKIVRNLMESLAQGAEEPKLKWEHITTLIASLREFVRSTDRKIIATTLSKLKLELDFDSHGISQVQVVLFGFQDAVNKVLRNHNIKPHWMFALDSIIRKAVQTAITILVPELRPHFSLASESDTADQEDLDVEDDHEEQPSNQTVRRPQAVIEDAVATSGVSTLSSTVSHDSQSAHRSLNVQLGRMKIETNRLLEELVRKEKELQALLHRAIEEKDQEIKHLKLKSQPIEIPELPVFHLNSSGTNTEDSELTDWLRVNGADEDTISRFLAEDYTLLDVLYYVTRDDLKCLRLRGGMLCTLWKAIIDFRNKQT
Sequence of ASK1/MAP3K5 (Q99683 whole entry): as above

Compound | IC50 [1] | IC50 (ASK1/MAP3K5)
O=C1Nc2cccc(n2)-c2nncn2CCCCOc2ccc(-c3cnn(C4CCC4)c3)cc21 [Example 35, 5^5-(1-Cyclobutyl-1H-pyrazol-4-yl)-1^4H-6-oxa-3-aza-2(2,6)-pyridina-1(3,4)-triazola-5(1,2)-benzenacyclodecaphan-4-one] | < 1000 nM | < 100 nM
CC(C)n1cc(-c2ccc3c(c2)C(=O)Nc2cccc(n2)-c2nncn2CCCCO3)cn1 [Example 36, 5^5-(1-Isopropyl-1H-pyrazol-4-yl)-1^4H-6-oxa-3-aza-2(2,6)-pyridina-1(3,4)-triazola-5(1,2)-benzenacyclodecaphan-4-one] | < 1000 nM | < 100 nM
Cc1c(-c2ccc3c(c2)C(=O)Nc2cccc(n2)-c2nncn2CCCCO3)cnn1C [Example 37, 5^5-(1,5-Dimethyl-1H-pyrazol-4-yl)-1^4H-6-oxa-3-aza-2(2,6)-pyridina-1(3,4)-triazola-5(1,2)-benzenacyclodecaphan-4-one] | < 1000 nM | < 100 nM
O=C1Nc2cccc(n2)-c2nncn2CCCCOc2ccc(-c3cnn(C4COC4)c3)cc21 [Example 38, 5^5-(1-(Oxetan-3-yl)-1H-pyrazol-4-yl)-1^4H-6-oxa-3-aza-2(2,6)-pyridina-1(3,4)-triazola-5(1,2)-benzenacyclodecaphan-4-one] | < 1000 nM | < 100 nM
CN1CCn2ncc(-c3ccc4c(c3)C(=O)Nc3cccc(n3)-c3nncn3CCCCO4)c2C1 [Example 40, 5^5-(5-Methyl-4,5,6,7-tetrahydropyrazolo[1,5-a]pyrazin-3-yl)-1^4H-6-oxa-3-aza-2(2,6)-pyridina-1(3,4)-triazola-5(1,2)-benzenacyclodecaphan-4-one] | < 1000 nM | < 100 nM
O=C1Nc2cccc(n2)-c2nncn2CCCCOc2ccc(-n3ccnc3)cc21 [Example 41, 5^5-(1H-Imidazol-1-yl)-1^4H-6-oxa-3-aza-2(2,6)-pyridina-1(3,4)-triazola-5(1,2)-benzenacyclodecaphan-4-one] | < 1000 nM | < 100 nM
Cc1nccn1-c1ccc2c(c1)C(=O)Nc1cccc(n1)-c1nncn1CCCCO2 [Example 43, 5^5-(2-Methyl-1H-imidazol-1-yl)-1^4H-6-oxa-3-aza-2(2,6)-pyridina-1(3,4)-triazola-5(1,2)-benzenacyclodecaphan-4-one] | < 1000 nM | < 100 nM
Cc1ccn(-c2ccc3c(c2)C(=O)Nc2cccc(n2)-c2nncn2CCCCO3)n1 [Example 45, 5^5-(3-Methyl-1H-pyrazol-1-yl)-1^4H-6-oxa-3-aza-2(2,6)-pyridina-1(3,4)-triazola-5(1,2)-benzenacyclodecaphan-4-one] | < 1000 nM | < 100 nM
Cc1ccnn1-c1ccc2c(c1)C(=O)Nc1cccc(n1)-c1nncn1CCCCO2 [Example 45a, 5^5-(5-Methyl-1H-pyrazol-1-yl)-1^4H-6-oxa-3-aza-2(2,6)-pyridina-1(3,4)-triazola-5(1,2)-benzenacyclodecaphan-4-one] | 1000 to 10000 nM | 100 to 1000 nM
Cc1cc(C)n(-c2ccc3c(c2)C(=O)Nc2cccc(n2)-c2nncn2CCCCO3)n1 [Example 46, 5^5-(3,5-Dimethyl-1H-pyrazol-1-yl)-1^4H-6-oxa-3-aza-2(2,6)-pyridina-1(3,4)-triazola-5(1,2)-benzenacyclodecaphan-4-one] | < 1000 nM | < 100 nM
NCc1ccc2c(c1)C(=O)Nc1cccc(n1)-c1nncn1CCCCO2 [Example 47, 5^5-(Aminomethyl)-1^4H-6-oxa-3-aza-2(2,6)-pyridina-1(3,4)-triazola-5(1,2)-benzenacyclodecaphan-4-one] | < 1000 nM | < 100 nM
CN(C)Cc1ccc2c(c1)C(=O)Nc1cccc(n1)-c1nncn1CCCCO2 [Example 48, 5^5-((Dimethylamino)methyl)-1^4H-6-oxa-3-aza-2(2,6)-pyridina-1(3,4)-triazola-5(1,2)-benzenacyclodecaphan-4-one] | < 1000 nM | < 100 nM
CC(C)(O)c1ccc2c(c1)C(=O)Nc1cccc(n1)-c1nncn1CCCCO2 [Example 49, 5^5-(2-Hydroxypropan-2-yl)-1^4H-6-oxa-3-aza-2(2,6)-pyridina-1(3,4)-triazola-5(1,2)-benzenacyclodecaphan-4-one] | < 1000 nM | < 100 nM
COC(C)(C)c1ccc2c(c1)C(=O)Nc1cccc(n1)-c1nncn1CCCCO2 [Example 50, 5^5-(2-Methoxypropan-2-yl)-1^4H-6-oxa-3-aza-2(2,6)-pyridina-1(3,4)-triazola-5(1,2)-benzenacyclodecaphan-4-one] | < 1000 nM | < 100 nM

Continued, values first:

IC50 [1] | IC50 (ASK1/MAP3K5) | Compound
< 1000 nM |  | CC(C)(C#N)c1ccc2c(c1)C(=O)Nc1cccc(n1)-c1nncn1CCCCO2 [Example 51, 2-Methyl-2-(4-oxo-1^4H-6-oxa-3-aza-2(2,6)-pyridina-1(3,4)-triazola-5(1,2)-benzenacyclodecaphane-5^5-yl)propanenitrile]
< 1000 nM | < 100 nM | O=C1Nc2cccc(n2)-c2nncn2CCCCOc2cc(F)c(-c3ccncc3)cc21 [Example 52, 5^4-Fluoro-5^5-(pyridin-4-yl)-1^4H-6-oxa-3-aza-2(2,6)-pyridina-1(3,4)-triazola-5(1,2)-benzenacyclodecaphan-4-one]
< 1000 nM |  | CN(C)CCn1cc(-c2cc3c(cc2C(F)(F)F)OCCCCn2cnnc2-c2cccc(n2)NC3=O)cn1 [Example 77, 5^5-(1-(2-(Dimethylamino)ethyl)-1H-pyrazol-4-yl)-5^4-(trifluoromethyl)-1^4H-6-oxa-3-aza-2(2,6)-pyridina-1(3,4)-triazola-5(1,2)-benzenacyclodecaphan-4-one]
< 1000 nM |  | C[C@H]1CCCOc2cc(F)c(N3CCN(C)CC3)cc2C(=O)Nc2cccc(n2)-c2nncn21 [Example 105, (S)-5^4-Fluoro-10-methyl-5^5-(4-methylpiperazin-1-yl)-1^4H-6-oxa-3-aza-2(2,6)-pyridina-1(3,4)-triazola-5(1,2)-benzenacyclodecaphan-4-one]
< 1000 nM |  | C[C@H]1CCCOc2cc(F)c(-c3ccncc3F)cc2C(=O)Nc2cccc(n2)-c2nncn21 [Example 109, (S)-5^4-Fluoro-5^5-(3-fluoropyridin-4-yl)-10-methyl-1^4H-6-oxa-3-aza-2(2,6)-pyridina-1(3,4)-triazola-5(1,2)-benzenacyclodecaphan-4-one]
< 1000 nM |  | C[C@H]1CCOc2cc(F)c(N3CCOCC3)cc2C(=O)Nc2cccc(n2)-c2nncn2C1 [Example 126, (S)-5^4-Fluoro-9-methyl-5^5-morpholino-1^4H-6-oxa-3-aza-2(2,6)-pyridina-1(3,4)-triazola-5(1,2)-benzenacyclodecaphan-4-one]
< 1000 nM |  | C[C@H]1CCOc2cc(F)c(-c3cccnc3F)cc2C(=O)Nc2cccc(n2)-c2nncn2C1 [Example 128, (S)-5^4-Fluoro-5^5-(2-fluoropyridin-3-yl)-9-methyl-1^4H-6-oxa-3-aza-2(2,6)-pyridina-1(3,4)-triazola-5(1,2)-benzenacyclodecaphan-4-one]
< 1000 nM |  | C[C@H]1CCOc2cc(F)c(-c3ccc(F)nc3)cc2C(=O)Nc2cccc(n2)-c2nncn2C1 [Example 129, (S)-5^4-Fluoro-5^5-(6-fluoropyridin-3-yl)-9-methyl-1^4H-6-oxa-3-aza-2(2,6)-pyridina-1(3,4)-triazola-5(1,2)-benzenacyclodecaphan-4-one]
< 1000 nM |  | C[C@H]1CCOc2cc(F)c(-c3cnn4c3CN(C)CC4)cc2C(=O)Nc2cccc(n2)-c2nncn2C1 [Example 131, (S)-5^4-Fluoro-9-methyl-5^5-(5-methyl-4,5,6,7-tetrahydropyrazolo[1,5-a]pyrazin-3-yl)-1^4H-6-oxa-3-aza-2(2,6)-pyridina-1(3,4)-triazola-5(1,2)-benzenacyclodecaphan-4-one]
< 1000 nM |  | C[C@@H]1CCOc2cc(F)c(-c3cnn4c3CN(C)CC4)cc2C(=O)Nc2cccc(n2)-c2nncn2C1 [Example 132, (R)-5^4-Fluoro-9-methyl-5^5-(5-methyl-4,5,6,7-tetrahydropyrazolo[1,5-a]pyrazin-3-yl)-1^4H-6-oxa-3-aza-2(2,6)-pyridina-1(3,4)-triazola-5(1,2)-benzenacyclodecaphan-4-one]
< 1000 nM |  | Cc1cn(-c2cc3c(cc2F)OCC[C@H](C)Cn2cnnc2-c2cccc(n2)NC3=O)cn1 [Example 133, (S)-5^4-Fluoro-9-methyl-5^5-(4-methyl-1H-imidazol-1-yl)-1^4H-6-oxa-3-aza-2(2,6)-pyridina-1(3,4)-triazola-5(1,2)-benzenacyclodecaphan-4-one]
< 1000 nM |  | CN1CCn2ncc(-c3cc4c(cc3F)OCC/C=C\Cn3cnnc3-c3cccc(n3)NC4=O)c2C1 [Example 182, (Z)-5^4-Fluoro-5^5-(5-methyl-4,5,6,7-tetrahydropyrazolo[1,5-a]pyrazin-3-yl)-1^4H-6-oxa-3-aza-2(2,6)-pyridina-1(3,4)-triazola-5(1,2)-benzenacycloundecaphan-9-en-4-one]
